From US9259452B2, “Deacetylase inhibitor therapy” (Celgene Corporation, priority 2006, dated 2016)
“And” between values parts separate entries of the source, which are not always exact repeats. Identical values can stand only once.

How the values were obtained:
[1] = ECG evaluation of T-wave (grade 1) and ST segment (grade 2) abnormalities, phase II trial of romidepsin in T-cell lymphoma patients; type: in vivo, human; details: for ECGs Grade 0 (no T-wave/ST segment abnormality) / ECGs Grade 1 (T-wave abnormality) / ECGs Grade 2 (ST segment depression): all doses, n = 42 patients
Source text: The protocol (NCI 01-C-0049 or 1312) and informed consent were approved by the Institutional Review Board of the National Cancer Institute. All data used in this analysis were obtained from patients who signed an informed consent and were enrolled and treated at the NIH Warren Grant Magnuson Clinical Center. Toxicities were reported using the National Cancer Institute Common Toxicity Criteria, CTC version 2.0. The Inclusion Criteria required measurable disease, an age of 18 years or older, an ECOG performance status of 0, 1 or 2, and a life expectancy of >12 wk. Required laboratory values included AGC≧1000/μL, platelets≧100,000/μL, bilirubin <1.5× the institutional upper limit of normal (ULN), AST <3×ULN, and creatinine <1.5×ULN. Patients with a myocardial infarction within the previous 6 months, a left ventricular ejection fraction (LVEF) below normal (<45% if performed by MUGA, or <50% if performed by echocardiogram or cardiac MRI), a corrected QT interval of >500 ms, unstable angina, or third degree heart block (unless with pacemaker) were not eligible to enroll.
Subsequently, the protocol was amended and all patients were treated on days 1, 8 and 15 of a 28 day cycle, with a starting dose of 14 mg/m^2. This change was made for improved patient tolerability. […] Provisions for dose reduction were made in the case of grade 3 or 4 toxicity. Alternatively, a dose increase was allowed for patients who had no serious toxicities.

[2] = Left ventricular ejection fraction (LVEF) evaluation by MUGA, echocardiogram or cardiac MRI; type: in vivo, human
Method: Evaluation of left ventricular ejection fraction: LVEF evaluations were performed at baseline, after the second cycle and every 3 cycles thereafter using MUGA, echocardiogram or cardiac MRI (23, 24). A patient's on-study and last available LVEF are included in this analysis. Cardiac measurements were performed according to the American Society of Echocardiography guidelines (25). LVEFs from echocardiograms were evaluated by an independent reviewer in a blinded manner and were assessed using the biplane Simpson's method.

[3] = Post-treatment echocardiogram, global LV function; type: in vivo, human
Method: Post treatment evaluation of cardiac function (LVEF): Echocardiograms to evaluate cardiac function were also performed on the day following the last dose of the cycle; day 6 for patients treated on days 1 and 5, or day 16 for patients treated on days 1, 8 and 15.
Post-treatment global LV function: To determine whether the observed ECG abnormalities were associated with acute LV wall motion abnormalities, echocardiograms were performed on the day following the last dose of the cycle (d 6 for patients treated on days 1 and 5, and day 16 for patients treated on days 1, 8, and 15).

[4] = Serum cardiac troponin I and CPK levels prior to and on the day after each dose
Method: An additional ECG was obtained on day 3 of the first cycle. ECGs were obtained using an HP Pagewriter XLi or a GE Marquette MAC1200 and recorded at 25 mm/sec, with an amplitude of 10 mm/mV and with 60 Hz filtering. They were analyzed using Pagewriter A.04.01 ECG analysis software (Philips Medical Systems). The QT interval measurement in this program is made by averaging the five longest QT intervals with a T or T′ wave amplitude greater than 0.15 mV. […] Grade 1 toxicity was defined as nonspecific T-wave abnormalities, (flattening or inversion without ST segment abnormalities) and Grade 2 as ST segment depression of at least 1 mm in at least 2 leads. If both were observed, then the ECG was assigned a grade 2 toxicity. […] The QTc analysis was performed on ECGs obtained during the first six cycles from patients treated on the day 1, 8 and 15 schedule (37 patients). ECGs from patients with an intraventricular conduction delay, defined as QRS duration greater than 100 ms, were excluded from the QTc analysis since in that setting the QTc interval includes a variable depolarization interval that leads to a prolonged QTc value (22).

[5] = Pre-treatment cycle 2 day 1 (n = 34), worst grade cycle 1: 1
[6] = Pre-treatment cycle 2 day 1 (n = 34), worst grade cycle 1: 2
[7] = Pre-treatment cycle 3 day 1 (n = 28), worst grade cycle 2: 1
[8] = Pre-treatment cycle 3 day 1 (n = 28), worst grade cycle 2: 2
[9] = Pre-treatment day 8 (n = 37), worst grade post-day 1 treatment 0
[10] = Pre-treatment day 8 (n = 37), worst grade post-day 1 treatment 1
[11] = Pre-treatment day 8 (n = 37), worst grade post-day 1 treatment 2
[12] = Pre-treatment day 15 (n = 36), worst grade post-day 8 treatment 0
[13] = Pre-treatment day 15 (n = 36), worst grade post-day 8 treatment 1
[14] = Pre-treatment day 15 (n = 36), worst grade post-day 8 treatment 2
[15] = Day after treatment, listed as depsipeptide
[16] = Immediate post infusion, listed as depsipeptide
[17] = Pre-treatment ECGs, listed as depsipeptide
[18] = any time during treatment, 37 patients on day 1, 8, 15 schedule
[19] = first dose of the first cycle (n = 42), Day 2
[20] = first dose of the first cycle (n = 42), Day 3
[21] = first dose of the first cycle (n = 42), Post infusion
[22] = first dose of the first cycle (n = 42), Pre (baseline)
[23] = 16 patients receiving at least 6 cycles
[24] = 16 patients receiving at least 6 cycles, baseline
[25] = among 123 ECGs, day 6 or day 16
[26] = obtained in parallel with elevated cTnI samples, individual cases

C/C=C1\NC(=O)[C@H]2CSSCC/C=C/[C@H](CC(=O)N[C@H](C(C)C)C(=O)N2)OC(=O)[C@H](C(C)C)NC1=O [romidepsin, (1S,4S,10S,16E,21R)-7-[(2Z)-ethylidene]-4,21-diisopropyl-2-oxa-12,13-dithia-5,8,20,23-tetraazabicyclo[8.7.6]tricos-16-ene-3,6,9,19,22-pentanone]
Patients with worst ECG Grade 0 ([1]; All cycles, 42 patients): 2%
Patients with worst ECG Grade 1 ([1]; All cycles, 42 patients): 45%
Patients with worst ECG Grade 2 ([1]; All cycles, 42 patients): 52%
Patients with worst ECG Grade 0 ([1]; Cycle 1 only, 42 patients): 19%
Patients with worst ECG Grade 1 ([1]; Cycle 1 only, 42 patients): 57%
Patients with worst ECG Grade 2 ([1]; Cycle 1 only, 42 patients): 24%
Patients with ECG grade 0 at presentation for next cycle ([1]; Pre-treatment cycle 2 day 1 (n = 34), worst grade cycle 1: 0): 6
Patients with ECG grade 0 at presentation for next cycle [1, 5]: 18
Patients with ECG grade 1 at presentation for next cycle [1, 5]: 3
Patients with ECG grade 0 at presentation for next cycle [1, 6]: 4
Patients with ECG grade 1 at presentation for next cycle [1, 6]: 2
Patients with ECG grade 2 at presentation for next cycle [1, 6]: 1
Patients with ECG grade 0 at presentation for next cycle ([1]; Pre-treatment cycle 3 day 1 (n = 28), worst grade cycle 2: 0): 2
Patients with ECG grade 0 at presentation for next cycle [1, 7]: 16
Patients with ECG grade 1 at presentation for next cycle [1, 7]: 1
Patients with ECG grade 0 at presentation for next cycle [1, 8]: 7
Patients with ECG grade 1 at presentation for next cycle [1, 8]: 2
Patients with ECG grade 0 at presentation for next cycle ([1]; Pre-treatment cycle 4 day 1 (n = 20), worst grade cycle 3: 1): 14
Patients with ECG grade 0 at presentation for next cycle ([1]; Pre-treatment cycle 4 day 1 (n = 20), worst grade cycle 3: 2): 6
Patients with ECG grade 0 at presentation for next dose [1, 9]: 14
Patients with ECG grade 1 at presentation for next dose [1, 9]: two
Patients with ECG grade 1 at presentation for next dose ([1]; Pre-treatment day 8 (n = 37), worst grade post-day 1 treatment 0, listed as depsipeptide): 2
Patients with ECG grade 0 at presentation for next dose [1, 10]: nine
Patients with ECG grade 1 at presentation for next dose [1, 10]: 8
Patients with ECG grade 2 at presentation for next dose [1, 10]: 1
Patients with ECG grade 0 at presentation for next dose ([1]; Pre-treatment day 8 (n = 37), worst grade post-day 1 treatment 1, listed as depsipeptide): 9
Patients with ECG grade 0 at presentation for next dose [1, 11]: two
Patients with ECG grade 1 at presentation for next dose [1, 11]: 1
Patients with ECG grade 0 at presentation for next dose ([1]; Pre-treatment day 8 (n = 37), worst grade post-day 1 treatment 2, listed as depsipeptide): 2
Patients with ECG grade 0 at presentation for next dose [1, 12]: 6
Patients with ECG grade 1 at presentation for next dose [1, 12]: 3
Patients with ECG grade 0 at presentation for next dose [1, 13]: 13
Patients with ECG grade 1 at presentation for next dose [1, 13]: 10
Patients with ECG grade 0 at presentation for next dose [1, 14]: 2
Patients with ECG grade 1 at presentation for next dose [1, 14]: 1
Patients with ECG grade 2 at presentation for next dose [1, 14]: 1
ECGs Grade 0 (no T-wave/ST segment abnormality) ([1]; Day after treatment): 20%
ECGs Grade 1 (T-wave abnormality) ([1]; Day after treatment): 69%
ECGs Grade 2 (ST segment depression) ([1]; Day after treatment): 11%
ECGs Grade 1 (T-wave abnormality) [1, 15]: 69%
ECGs Grade 2 (ST segment depression) [1, 15]: 11%
ECGs Grade 0 (no T-wave/ST segment abnormality) ([1]; Immediate post infusion): 49%
ECGs Grade 1 (T-wave abnormality) ([1]; Immediate post infusion): 48%
ECGs Grade 2 (ST segment depression) ([1]; Immediate post infusion): 3%
ECGs Grade 1 (T-wave abnormality) [1, 16]: 48%
ECGs Grade 2 (ST segment depression) [1, 16]: 3%
ECGs Grade 0 (no T-wave/ST segment abnormality) ([1]; Pre-treatment ECGs): 76%
ECGs Grade 1 (T-wave abnormality) ([1]; Pre-treatment ECGs): 22%
ECGs Grade 2 (ST segment depression) ([1]; Pre-treatment ECGs): 2%
ECGs Grade 1 (T-wave abnormality) [1, 17]: 22%
ECGs Grade 2 (ST segment depression) [1, 17]: 2%
Patients with worst ECG Grade 1 [1, 18]: 43%
Patients with worst ECG Grade 2 [1, 18]: 54%
ECGs Grade 0 [1, 19]: 49%
ECGs Grade 1 [1, 19]: 44%
ECGs Grade 2 [1, 19]: 7%
ECGs Grade 0 [1, 20]: 55%
ECGs Grade 1 [1, 20]: 45%
ECGs Grade 0 [1, 21]: 82%
ECGs Grade 1 [1, 21]: 18%
ECGs Grade 0 [1, 22]: 95%
ECGs Grade 1 [1, 22]: 5%
ST segment depression, grade 2 ([1]; first dose of the first cycle, day 3): not observed
Grade 2 ECGs meeting criteria consistent with ischemia (1 mm ST segment depression 80 msec after end of QRS) ([1]; of 69 ECGs scored grade 2, cardiologist review): 45%
Patients returning for the second cycle with no evidence of T-wave or ST-segment abnormalities ([1]; of the 34 patients returning for cycle 2): Twenty-eight
Pre-treatment versus post-treatment LVEF ([2]; 8 patients with six or more cycles and prior doxorubicin): did not demonstrate a difference in pre-treatment and post-treatment LVEF
Latest EF, Median [2, 23]: 63.5%
Latest EF, Range [2, 23]: 50-80%
Starting EF, Median [2, 24]: 65.5%
Starting EF, Range [2, 24]: 50-85%
LVEF evaluations versus baseline ([2]; 16 patients who received six or more cycles, median cumulative dose 390 mg/m^2): did not demonstrate a change from baseline
EF by MUGA, On-study Median (range) ([2]; All patients (19), baseline): 61% (46-85)
EF by Echocardiogram, On-study Median (range) ([2]; All patients (23), baseline): 67% (53-85)
Median actual change in LVEF, on-study to last scan ([2]; MUGA scans, 13 patients, median 20.3 weeks): 1%
EF by MUGA, Last evaluation Median (range) ([2]; Patients treated with >6 cycles (7)): 61% (50-68)
EF by MUGA, On-study Median (range) ([2]; Patients treated with >6 cycles (7), baseline): 64% (50-77)
EF by Echocardiogram, Last evaluation Median (range) ([2]; Patients treated with >6 cycles (9)): 68% (58-80)
EF by Echocardiogram, On-study Median (range) ([2]; Patients treated with >6 cycles (9), baseline): 69% (56-85)
EF by MUGA, Last evaluation Median (range) ([2]; Patients with pre- and post treatment evaluations (13)): 61% (50-91)
EF by MUGA, On-study Median (range) ([2]; Patients with pre- and post treatment evaluations (13), baseline): 62% (46-85)
EF by Echocardiogram, Last evaluation Median (range) ([2]; Patients with pre- and post treatment evaluations (22)): 64% (53-87)
EF by Echocardiogram, On-study Median (range) ([2]; Patients with pre- and post treatment evaluations (22), baseline): 67% (53-85)
Median actual change in LVEF, on-study to last scan ([2]; echocardiograms, 22 patients, median 18.4 weeks): −1%
Latest EF ([2]; individual patients receiving at least 6 cycles of therapy): 50% and 78% and 61% (3×) and 72% and 68% (3×) and 80% and 58% (2×) and 70% and 63% and 64% and 60%
Starting EF ([2]; individual patients receiving at least 6 cycles of therapy, baseline): 52% and 69% and 56% and 67% and 70% (2×) and 85% (2×) and 68% and 58% and 59% and 64% (2×) and 50% and 77% and 54%
ECGs with ST-segment depression obtained on the same day as the echocardiogram [3, 25]: 23
ECGs with T-wave flattening obtained on the same day as the echocardiogram [3, 25]: 82
ECGs with no abnormalities obtained on the same day as the echocardiogram [3, 25]: 18
Echocardiograms demonstrating a change from baseline (acute LV wall motion) ([3]; day following last dose of the cycle (day 6 or day 16), 145 echocardiograms, 34 patients): None
Number of cTnI samples found to be elevated ([4]; from 8 patients, 601 pre-treatment and 590 day-after samples): 10
CPK Post-treatment [4, 26]: 20 and 28 (2×) and 18 and 16 and 85 and 157 and 144 and 162
CPK Pre-treatment [4, 26]: 29 and 43 and 27 and 47 and 70 and 200 and 179 and 28 and 39 and 160
CPK samples obtained in parallel with the 10 elevated cTnI samples ([4]; range, unchanged from pre-treatment): 16-200
Troponin Post-treatment ([4]; serum cTnI, day following treatment, individual cases): 2.1-3.3 ng/ml and ≦0.2 ng/ml and 3.3 ng/ml and 2.1 ng/ml and 2.6 ng/ml and 8.3 ng/ml and 2.3 ng/ml and 15.8 ng/ml and 3.6 ng/ml
Troponin Repeat (of elevated pre-treatment sample) ([4]; serum cTnI, individual cases): ≤ 0.2 ng/ml and ≦0.2 ng/ml
Troponin Pre-treatment ([4]; serum cTnI, individual cases with an elevated sample among 1191 samples): 3.4-11.3 ng/ml and 11.3 ng/ml and ≦0.2 ng/ml and 3.4 ng/ml and 6.4 ng/ml
Troponin Repeat (of elevated post-treatment sample) ([4]; serum cTnI, repeated the same day, individual cases): ≤ 0.2 ng/ml and ≦0.2 ng/ml
